A word on the IC50: it is the concentration that inhibits the measured activity by half. The pIC50 is the negative decadic logarithm of the IC50, by convention in mol/L.

pIC50: −log10 of the molar value. Bridge positions count the residues as written; N and C are the ends. Square brackets hold non-standard residues; d marks the D form. Peptide text beside a SMILES is read from it. Nle = CCCC[C@H](N)C(=O)O

One assay concerns the target T1, Kv1.6 (Homo sapiens, UniProt P17658).
T1 construct: expressed in transfected cells; host or cells: Chinese Hamster Ovary (CHO)
As to the kind of experiment: cell-based. Particulars: for IC50: CHO cells, whole-cell patch clamp, read-out: Potency IC50 (nM) Kv1.6; for Selectivity Kv1.6/Kv1.3: ratio IC50[Kv1.6]/IC50[Kv1.3]. (The patch-clamp technique gives a direct electrical read-out from membranes.)

In the next assay the target is T2, Kv1.2 (Homo sapiens, UniProt P16389).
T2 construct: expressed in transfected cells; host or cells: Chinese Hamster Ovary (CHO)
The assay is described as follows: cell-based. Particulars: CHO cells, whole-cell patch clamp; read-out: Potency IC50 (nM) Kv1.2.

The next assay concerns the target T3, Kv1.3 (Homo sapiens, UniProt P22001).
T3 construct: expressed in transfected cells; host or cells: Chinese Hamster Ovary (CHO)
As to the kind of experiment: cell-based. Particulars: CHO cells, whole-cell patch clamp; read-out: Potency IC50 (nM) Kv1.3.

Assay [1] concerns the target T4, human Kv1.3 voltage-gated K+ channel (Homo sapiens, UniProt P22001).
T4 construct: host or cells: CHO-DUKX
The assay is described as follows: cell-based. Particulars: inhibition of thallium flux, CHO-DUKX cells with human Kv1.3; read-out: IC50.

Another assay addresses T5, Kv1.1 (Homo sapiens, UniProt Q09470).
T5 construct: expressed in transfected cells; host or cells: Chinese Hamster Ovary (CHO)
The assay is described as follows: cell-based. Particulars: for IC50: CHO cells, whole-cell patch clamp, read-out: Potency IC50 (nM) Kv1.1; for Selectivity Kv1.1/Kv1.3: ratio IC50[Kv1.1]/IC50[Kv1.3].

In the next assay the target is Rat whole blood (Rattus norvegicus, UniProt P15384).
Chain of Rat whole blood (P15384 whole entry): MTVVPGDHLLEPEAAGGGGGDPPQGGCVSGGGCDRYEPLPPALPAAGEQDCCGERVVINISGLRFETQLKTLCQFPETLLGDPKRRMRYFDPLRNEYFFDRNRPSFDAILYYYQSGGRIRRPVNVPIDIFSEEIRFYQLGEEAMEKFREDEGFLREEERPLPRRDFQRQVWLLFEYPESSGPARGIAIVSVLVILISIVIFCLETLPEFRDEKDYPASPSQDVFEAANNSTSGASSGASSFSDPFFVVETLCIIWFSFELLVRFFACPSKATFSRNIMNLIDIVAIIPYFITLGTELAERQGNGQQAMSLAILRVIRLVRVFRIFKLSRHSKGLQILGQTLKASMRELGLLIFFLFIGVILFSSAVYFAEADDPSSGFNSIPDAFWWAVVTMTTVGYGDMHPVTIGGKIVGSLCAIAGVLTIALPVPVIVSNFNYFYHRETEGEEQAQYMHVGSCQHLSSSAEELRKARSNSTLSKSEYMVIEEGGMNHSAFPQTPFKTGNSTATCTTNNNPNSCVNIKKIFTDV

T2 sequence (P16389 whole entry): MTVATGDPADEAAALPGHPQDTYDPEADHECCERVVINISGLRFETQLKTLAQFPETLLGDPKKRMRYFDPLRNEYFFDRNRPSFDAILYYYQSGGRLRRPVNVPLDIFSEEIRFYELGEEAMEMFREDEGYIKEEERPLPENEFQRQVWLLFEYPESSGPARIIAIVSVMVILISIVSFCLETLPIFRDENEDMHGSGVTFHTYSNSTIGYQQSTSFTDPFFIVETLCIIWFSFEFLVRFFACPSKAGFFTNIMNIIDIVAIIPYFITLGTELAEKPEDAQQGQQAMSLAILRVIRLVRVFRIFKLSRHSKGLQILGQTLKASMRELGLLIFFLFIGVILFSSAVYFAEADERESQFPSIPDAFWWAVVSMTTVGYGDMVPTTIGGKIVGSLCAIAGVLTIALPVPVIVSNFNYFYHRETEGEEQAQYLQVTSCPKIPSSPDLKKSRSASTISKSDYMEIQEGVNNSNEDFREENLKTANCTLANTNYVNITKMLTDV
T5 sequence (Q09470 whole entry): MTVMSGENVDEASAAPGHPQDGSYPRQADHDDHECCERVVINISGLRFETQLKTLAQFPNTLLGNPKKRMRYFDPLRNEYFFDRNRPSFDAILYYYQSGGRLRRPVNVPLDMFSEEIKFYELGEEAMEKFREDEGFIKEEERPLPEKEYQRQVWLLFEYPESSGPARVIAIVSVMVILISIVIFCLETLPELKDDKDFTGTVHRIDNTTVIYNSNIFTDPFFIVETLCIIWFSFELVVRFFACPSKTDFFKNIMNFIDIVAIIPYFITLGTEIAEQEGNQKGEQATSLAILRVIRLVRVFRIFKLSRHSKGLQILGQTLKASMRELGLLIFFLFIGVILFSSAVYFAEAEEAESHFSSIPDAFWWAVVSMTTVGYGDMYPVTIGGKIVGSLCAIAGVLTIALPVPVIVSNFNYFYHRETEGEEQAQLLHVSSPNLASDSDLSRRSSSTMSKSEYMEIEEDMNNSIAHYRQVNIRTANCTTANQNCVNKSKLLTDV
T3 sequence (P22001 whole entry): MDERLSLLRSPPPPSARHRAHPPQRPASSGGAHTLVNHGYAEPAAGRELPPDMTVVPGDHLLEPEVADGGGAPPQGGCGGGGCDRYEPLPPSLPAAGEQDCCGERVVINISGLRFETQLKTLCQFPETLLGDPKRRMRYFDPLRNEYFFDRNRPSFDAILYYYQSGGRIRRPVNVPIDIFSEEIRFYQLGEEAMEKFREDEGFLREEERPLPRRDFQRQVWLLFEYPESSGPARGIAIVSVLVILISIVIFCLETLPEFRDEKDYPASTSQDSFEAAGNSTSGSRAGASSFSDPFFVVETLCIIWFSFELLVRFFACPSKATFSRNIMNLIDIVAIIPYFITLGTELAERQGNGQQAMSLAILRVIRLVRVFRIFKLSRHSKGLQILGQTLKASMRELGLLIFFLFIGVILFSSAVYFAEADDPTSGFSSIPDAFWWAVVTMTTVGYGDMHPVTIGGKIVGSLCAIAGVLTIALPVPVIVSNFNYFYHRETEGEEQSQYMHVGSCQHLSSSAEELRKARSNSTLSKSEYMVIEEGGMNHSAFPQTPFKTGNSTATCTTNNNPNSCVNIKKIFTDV
T4 sequence (P22001 whole entry): as above
T1 sequence (P17658 whole entry): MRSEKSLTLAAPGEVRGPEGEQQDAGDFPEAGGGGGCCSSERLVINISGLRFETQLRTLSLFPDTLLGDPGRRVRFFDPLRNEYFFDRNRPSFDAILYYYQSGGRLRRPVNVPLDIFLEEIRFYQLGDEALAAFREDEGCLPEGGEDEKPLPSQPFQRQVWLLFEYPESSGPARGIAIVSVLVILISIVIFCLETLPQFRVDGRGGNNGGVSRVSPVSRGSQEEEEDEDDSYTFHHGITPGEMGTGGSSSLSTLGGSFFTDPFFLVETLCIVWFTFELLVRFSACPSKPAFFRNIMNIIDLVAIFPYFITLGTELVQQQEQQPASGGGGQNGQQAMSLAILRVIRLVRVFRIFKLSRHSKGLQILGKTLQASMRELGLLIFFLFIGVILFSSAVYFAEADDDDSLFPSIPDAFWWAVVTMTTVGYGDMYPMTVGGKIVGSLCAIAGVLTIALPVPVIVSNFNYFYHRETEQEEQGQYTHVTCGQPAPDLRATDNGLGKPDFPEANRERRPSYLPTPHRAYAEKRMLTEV

Regarding `CC[C@H](C)[C@@H]1NC(=O)[C@H](C)NC(=O)[C@H](CCCCN)NC(=O)[C@H](CC(C)C)NC(=O)[C@@H]2CSSC[C@@H](C(=O)N[C@@H](Cc3ccc(O)cc3)C(=O)N3CCC[C@H]3C(=O)N[C@@H](CCCNC(=N)N)C(N)=O)NC(=O)[C@H](CCCCN)NC(=O)[C@@H]3CSSC[C@H](NC(=O)[C@H](CCC(=O)O)NC(=O)[C@H](C(C)C)NC(=O)[C@H](CO)NC(=O)[C@H](C)NC(=O)[C@H](CO)NC(=O)[C@@H](NC(=O)[C@H](CCCNC(=N)N)NC(=O)[C@H](CCSC)NC(=O)[C@H](CC(=O)O)NC(=O)[C@H](CCSC)NC(=O)[C@@H](N)CC(N)=O)CSSC[C@H](NC(=O)[C@H](CCCCN)NC(=O)CNC(=O)[C@H](Cc4ccccc4)NC(=O)[C@H]([C@@H](C)CC)NC(=O)[C@H](CO)NC(=O)CNC1=O)C(=O)N[C@@H](CCSC)C(=O)N[C@@H](CC(N)=O)C(=O)N[C@@H](CCCCN)C(=O)N[C@@H](CCCCN)C(=O)N3)C(=O)N[C@@H](CC(C)C)C(=O)N[C@@H](CCC(N)=O)C(=O)N[C@@H](CCCCN)C(=O)N2` [Compound 29] (H-NMDMRCSASVECLQKCLKAIGSIFGKCMNKKCKCYPR-NH2; disulfide 6-27, 12-32, 16-34), the IC50 at Kv1.6 is more than 3000 nM; on Kv1.2 it was 874 nM; at Kv1.3, 0.4 nM; on Kv1.1, more than 3000 nM. In addition, on Kv1.6, the “Selectivity Kv1.6/Kv1.3” value is reported as more than 7400. Also, the pIC50 in assay [1] was 9.74; at Rat whole blood it was not below 9.00. For the same compound, the “Selectivity Kv1.1/Kv1.3” value at Kv1.1 is recorded as more than 7400.
With `CCCC[C@@H]1NC(=O)[C@@H]2CSSC[C@H](NC(=O)[C@H](CCCNC(=N)N)NC(=O)[C@H](CCCC)NC(=O)[C@H](CC(=O)O)NC(=O)[C@H](CCCC)NC(=O)[C@@H](N)CC(N)=O)C(=O)N[C@@H](CO)C(=O)N[C@@H](C)C(=O)N[C@@H](CO)C(=O)N[C@@H](C(C)C)C(=O)N[C@@H](CCC(=O)O)C(=O)N[C@H]3CSSC[C@H](NC(=O)[C@H](CCCCN)NC(=O)[C@H](CCCCN)NC(=O)[C@H](CC(N)=O)NC1=O)C(=O)N[C@@H](CCCCN)C(=O)N[C@H](C(=O)N[C@@H](Cc1ccc(O)cc1)C(=O)N1CCC[C@H]1C(=O)N[C@@H](CCCNC(=N)N)C(N)=O)CSSC[C@H](NC(=O)[C@H](CCCCN)NC(=O)[C@H](CCC(N)=O)NC(=O)[C@H](CCCCN)NC3=O)C(=O)N[C@@H](CC(C)C)C(=O)N[C@@H](CCCCN)C(=O)N[C@@H](C)C(=O)N[C@@H]([C@@H](C)CC)C(=O)NCC(=O)N[C@@H](CO)C(=O)N1CCC[C@H]1C(=O)N[C@@H](Cc1ccccc1)C(=O)NCC(=O)N[C@@H](CCCCN)C(=O)N2` [Compound 62] (H-N[Nle]D[Nle]RCSASVECKQKCLKAIGSPFGKC[Nle]NKKCKCYPR-NH2; disulfide 6-27, 12-32, 16-34), the IC50 was 2350 nM at Kv1.6, 449 nM at Kv1.2, 0.26 nM at Kv1.3 and more than 3000 nM on Kv1.1. Moreover, the pIC50 in assay [1] is 9.89; on Rat whole blood, not below 9.00. At Kv1.1, the “Selectivity Kv1.1/Kv1.3” value is on record as more than 11600.
Regarding `CCCC[C@@H]1NC(=O)[C@@H]2CSSC[C@H](NC(=O)[C@H](CCCNC(=N)N)NC(=O)[C@H](CC(C)C)NC(C)=O)C(=O)N[C@@H](CO)C(=O)N[C@@H](C)C(=O)N[C@@H](CO)C(=O)N[C@@H](C(C)C)C(=O)N[C@@H](CCC(=O)O)C(=O)N[C@H]3CSSC[C@H](NC(=O)[C@H](CCCCN)NC(=O)[C@H](CCCCN)NC(=O)[C@H](CC(N)=O)NC1=O)C(=O)N[C@@H](CCCCN)C(=O)N[C@H](C(=O)N[C@@H](Cc1ccc(O)cc1)C(=O)N1CCC[C@H]1C(=O)N[C@@H](CCCNC(=N)N)C(N)=O)CSSC[C@H](NC(=O)[C@H](CCCCN)NC(=O)[C@H](CCC(N)=O)NC(=O)[C@H](CCCCN)NC3=O)C(=O)N[C@@H](CC(C)C)C(=O)N[C@@H](CCCCN)C(=O)N[C@@H](C)C(=O)N[C@@H]([C@@H](C)CC)C(=O)NCC(=O)N[C@@H](CO)C(=O)N[C@@H]([C@@H](C)CC)C(=O)N[C@@H](Cc1ccccc1)C(=O)NCC(=O)N[C@@H](CCCCN)C(=O)N2` [Compound 108] (Ac-LRCSASVECKQKCLKAIGSIFGKC[Nle]NKKCKCYPR-NH2; disulfide 3-24, 9-29, 13-31), the IC50 at Kv1.6 is 2460 nM; on Kv1.2, 122 nM; on Kv1.3, 0.35 nM; at Kv1.1 it was more than 3000 nM. Moreover, the pIC50 in assay [1] was 10.00; against Rat whole blood, not below 9.00. Besides, the “Selectivity Kv1.1/Kv1.3” value on Kv1.1 is recorded as more than 8700.
As to `CCCC[C@@H]1NC(=O)[C@@H]2CSSC[C@H](NC(C)=O)C(=O)N[C@@H](CO)C(=O)N[C@@H](C)C(=O)N[C@@H](CO)C(=O)N[C@@H](C(C)C)C(=O)N[C@@H](CCC(=O)O)C(=O)N[C@H]3CSSC[C@H](NC(=O)[C@H](CCCCN)NC(=O)[C@H](CCCCN)NC(=O)[C@H](CC(N)=O)NC1=O)C(=O)N[C@@H](CCCCN)C(=O)N[C@H](C(=O)N[C@@H](Cc1ccc(O)cc1)C(=O)N1CCC[C@H]1C(=O)N[C@@H](CCCNC(=N)N)C(N)=O)CSSC[C@H](NC(=O)[C@H](CCCCN)NC(=O)[C@H](CCC(N)=O)NC(=O)[C@H](CCCCN)NC3=O)C(=O)N[C@@H](CC(C)C)C(=O)N[C@@H](CCCCN)C(=O)N[C@@H](C)C(=O)N[C@@H]([C@@H](C)CC)C(=O)NCC(=O)N[C@@H](CO)C(=O)N[C@@H]([C@@H](C)CC)C(=O)N[C@@H](Cc1ccccc1)C(=O)NCC(=O)N[C@@H](CCCCN)C(=O)N2` [Compound 105] (Ac-CSASVECKQKCLKAIGSIFGKC[Nle]NKKCKCYPR-NH2; disulfide 1-22, 7-27, 11-29), the IC50 at Kv1.6 was more than 3000 nM; on Kv1.2 it was 384 nM; at Kv1.3 it was 0.24 nM; at Kv1.1 it was more than 3000 nM. In addition, at Kv1.6, the “Selectivity Kv1.6/Kv1.3” value was more than 12400. The pIC50 in assay [1] is 9.80; against Rat whole blood it was not below 9.00. Also, the “Selectivity Kv1.1/Kv1.3” value at Kv1.1 is given as more than 12400.
As to `CC[C@H](C)[C@@H]1NC(=O)[C@H](C)NC(=O)[C@H](CCCCN)NC(=O)[C@H](CC(C)C)NC(=O)[C@@H]2CSSC[C@@H](C(=O)N[C@@H](Cc3ccc(O)cc3)C(=O)N3CCC[C@H]3C(=O)N[C@@H](CCCNC(=N)N)C(N)=O)NC(=O)[C@H](CCCCN)NC(=O)[C@@H]3CSSC[C@H](NC(=O)[C@H](CCC(=O)O)NC(=O)[C@H](C(C)C)NC(=O)[C@H](CO)NC(=O)[C@H](C)NC(=O)[C@H](CO)NC(=O)[C@@H](NC(=O)[C@H](CCCNC(=N)N)NC(=O)[C@H](CCSC)NC(=O)[C@H](CC(=O)O)NC(=O)[C@H](CCSC)NC(=O)[C@@H](N)CC(N)=O)CSSC[C@H](NC(=O)[C@H](CCCCN)NC(=O)CNC(=O)[C@H](Cc4ccccc4)NC(=O)[C@H]([C@@H](C)CC)NC(=O)[C@H](CO)NC(=O)CNC1=O)C(=O)N[C@@H](CCSC)C(=O)N[C@@H](CC(N)=O)C(=O)N[C@@H](CCCCN)C(=O)N[C@@H](CCCCN)C(=O)N3)C(=O)N[C@@H](CCCCN)C(=O)N[C@@H](CCC(=O)O)C(=O)N[C@@H](CCCCN)C(=O)N2` [Compound 31] (H-NMDMRCSASVECKEKCLKAIGSIFGKCMNKKCKCYPR-NH2; disulfide 6-27, 12-32, 16-34), the IC50 at Kv1.6 is more than 3000 nM; on Kv1.2, 179 nM; on Kv1.3, 0.28 nM; on Kv1.1 it was more than 3000 nM. On Kv1.6, the “Selectivity Kv1.6/Kv1.3” value was more than 10800. The results for the pIC50 (in assay [1]; on Rat whole blood) were 10.12 and not below 9.00, respectively. Further, the “Selectivity Kv1.1/Kv1.3” value on Kv1.1 is given as more than 10800.
With `CC[C@H](C)[C@@H]1NC(=O)[C@H](CCCNC(=N)N)NC(=O)[C@H](CCCCN)NC(=O)[C@H](CC(C)C)NC(=O)[C@@H]2CSSC[C@@H](C(=O)N[C@@H](Cc3ccc(O)cc3)C(=O)N3CCC[C@H]3C(=O)N[C@@H](CCCNC(=N)N)C(N)=O)NC(=O)[C@H](CCCCN)NC(=O)[C@@H]3CSSC[C@H](NC(=O)[C@H](CCC(=O)O)NC(=O)[C@H](C(C)C)NC(=O)[C@H](CO)NC(=O)[C@H](C)NC(=O)[C@H](CO)NC(=O)[C@@H](NC(=O)[C@H](CCCNC(=N)N)NC(=O)[C@H](CCSC)NC(=O)[C@H](CC(=O)O)NC(=O)[C@H](CCSC)NC(=O)[C@@H](N)CC(N)=O)CSSC[C@H](NC(=O)[C@H](CCCCN)NC(=O)CNC(=O)[C@H](Cc4ccccc4)NC(=O)[C@H]([C@@H](C)CC)NC(=O)[C@H](CO)NC(=O)CNC1=O)C(=O)N[C@@H](CCSC)C(=O)N[C@@H](CC(N)=O)C(=O)N[C@@H](CCCCN)C(=O)N[C@@H](CCCCN)C(=O)N3)C(=O)N[C@@H](CCCCN)C(=O)N[C@@H](CCC(N)=O)C(=O)N[C@@H](CCCCN)C(=O)N2` [Compound 56] (H-NMDMRCSASVECKQKCLKRIGSIFGKCMNKKCKCYPR-NH2; disulfide 6-27, 12-32, 16-34), the IC50 is 932 nM at Kv1.6, 57 nM on Kv1.2, 0.3 nM at Kv1.3 and more than 3000 nM at Kv1.1. Moreover, in assay [1], the pIC50 was 10.06. Besides, the “Selectivity Kv1.1/Kv1.3” value on Kv1.1 was more than 9900.

The record behind these values is US11780893B2, “Kv1.3 blockers” (Zealand Pharma A/S, priority 2019, dated 2023).
